Source: US20260207578A1, “COMPOUND BASED ON SULFUR/OXYGEN SUBSTITUTED GLUTARIMIDE-BASED ISOINDOLINONE SKELETON AND USE THEREOF” (Gluetacs Therapeutics (Shanghai) Co., LTD., priority 2022, published 2026)

Experiments:
[1] = biological target: T1, human Cereblon WT GST-tagged protein (Homo sapiens, UniProt Q96SW2); assay: CRBN-binding affinity, HTRF (CEREBLON BINDING kit); conditions: displacement of Thalidomide-Re reagent, 3 hours at room temperature
T1 construct: purchased CISBIO 64BDCRBNPEH
Procedure, shortened: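 Compounds displace a thalidomide-Re tracer from GST-tagged human Cereblon WT, detected with an Eu-labelled anti-GST antibody by time-resolved fluorescence. Signal at 620 nm was normalised against solvent and blank controls.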

IKZF1 = biological target: T2, IKZF1 (Homo sapiens, UniProt Q13422+Q96SW2); assay: Western-blot assay, substrate protein in hPBMCs; format: cell-based; conditions: hPBMC cells, 24 hours, tested at 50 nM and 500 nM, table does not say which
T2 construct: endogenous in cells; host or cells: human PBMCs (Milecell Biotechnologies)
Method: (§1) The effect of the compounds of the present disclosure on the expression of target proteins in cells was detected using conventional Western blot analysis.
(§2) Human peripheral blood mononuclear cells (hPBMCs) at a density of 1×10^6 cells/mL were thawed according to the PBMC Recovery Protocol (Milecell Biotechnologies Inc, Shanghai). The cells were then treated with the compounds of the present disclosure (including the compounds listed in Tables 1 and 2, and the Examples A1-A20 and 1-116 compounds) at concentrations of 50 nM and 500 nM.
(§3) Controls included a negative control (DMSO) and a positive control (the commercial immunomodulatory drug lenalidomide), both processed following the identical experimental protocol as the compounds of the present disclosure. After 24 hours of compounds treatment, cells were harvested and lysed in RIPA protein lysate containing phosphatase inhibitors on ice for 30-60 min, followed by centrifugation. The supernatant was aspirated as the extracted total cell protein. The protein concentration of the supernatant was determined using the conventional BCA (Bicinchoninic Acid) assay. The supernatant was then mixed with 4× SDS sample loading buffer, denatured at 95° C. for 5 minutes, and then subjected to SDS-PAGE electrophoresis on a polyacrylamide gel. Proteins were then transferred to a nitrocellulose (NC) membrane, blocked at room temperature for 1-2 h, and processed for antibody incubation and detection according to the manufacturer's instructions (Cell Signaling Technology).
(§4) Half-Maximal Degradation Concentration value (the drug concentration required for degrading proteins by 50%, abbreviated as DC50) reads method: comparing the grayscale values of Western blot bands from drug-treated samples with those from blank DMSO-treated controls, and identifying the drug concentration range at which the grayscale value is half that of the DMSO-treated control bands.
(§5) DC50 values can be calculated using ImageJ software to measure grayscale values of Western blot bands from drug-treated samples. The concentration-response curve is fitted to estimate the drug concentration corresponding to half the grayscale value.
(§6) Target protein remaining (%) refers to the percentage of target protein remaining in hPBMC cells after treatment with protein degrader compounds.
(§7) Calculation method for protein remaining (%): Use ImageJ software to measure grayscale values of Western blot bands from drug (protein degrader)-treated samples. The grayscale value of drug-treated bands is divided by that of internal control protein bands, and the resulting quotient is normalized to obtain the relative percentage of remaining target protein after protein degrader treatment.
(§8) Target protein degradation rate (%)=100%−target protein remaining (%).

IKZF3 = biological target: T3, IKZF3 (Homo sapiens, UniProt Q96SW2+Q9UKT9); assay: Western-blot assay, substrate protein in hPBMCs; format: cell-based; conditions: hPBMC cells, 24 hours, tested at 50 nM and 500 nM, table does not say which
T3 construct: endogenous in cells; host or cells: human PBMCs (Milecell Biotechnologies)
Method: as §1, §2, §3, §4, §5, §6, §7, §8

CK1α = biological target: T4, CK1α (Homo sapiens, UniProt P48729+Q96SW2); assay: Western-blot assay, substrate protein in hPBMCs; format: cell-based; conditions: hPBMC cells, 24 hours, tested at 50 nM and 500 nM, table does not say which
T4 construct: endogenous in cells; host or cells: human PBMCs (Milecell Biotechnologies)
Procedure, shortened: (§9)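 Cellular protein levels after a 24 h degrader treatment of human PBMCs were assessed by Western blot densitometry relative to an internal control. Results are expressed as % remaining, % degraded, or DC50 versus DMSO-treated cells.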

GSPT1 = biological target: T5, GSPT1 (Homo sapiens, UniProt P15170+Q96SW2); assay: Western-blot assay, substrate protein in hPBMCs; format: cell-based; conditions: hPBMC cells, 24 hours, tested at 50 nM and 500 nM, table does not say which
T5 construct: endogenous in cells; host or cells: human PBMCs (Milecell Biotechnologies)
Procedure, shortened: as §9

Wee1 = biological target: T6, Wee1 (Homo sapiens, UniProt P30291+Q96SW2); assay: Western-blot assay, substrate protein in hPBMCs; format: cell-based; conditions: hPBMC cells, 24 hours, tested at 50 nM and 500 nM, table does not say which
T6 construct: endogenous in cells; host or cells: human PBMCs (Milecell Biotechnologies)
Procedure, shortened: as §9

IKZF2 = biological target: T7, IKZF2 (Homo sapiens, UniProt Q96SW2+Q9UKS7); assay: Western-blot assay, substrate protein in hPBMCs; format: cell-based; conditions: hPBMC cells, 24 hours, tested at 50 nM and 500 nM, table does not say which
T7 construct: endogenous in cells; host or cells: human PBMCs (Milecell Biotechnologies)
Procedure, shortened: as §9

T1 sequence (Q96SW2 whole entry): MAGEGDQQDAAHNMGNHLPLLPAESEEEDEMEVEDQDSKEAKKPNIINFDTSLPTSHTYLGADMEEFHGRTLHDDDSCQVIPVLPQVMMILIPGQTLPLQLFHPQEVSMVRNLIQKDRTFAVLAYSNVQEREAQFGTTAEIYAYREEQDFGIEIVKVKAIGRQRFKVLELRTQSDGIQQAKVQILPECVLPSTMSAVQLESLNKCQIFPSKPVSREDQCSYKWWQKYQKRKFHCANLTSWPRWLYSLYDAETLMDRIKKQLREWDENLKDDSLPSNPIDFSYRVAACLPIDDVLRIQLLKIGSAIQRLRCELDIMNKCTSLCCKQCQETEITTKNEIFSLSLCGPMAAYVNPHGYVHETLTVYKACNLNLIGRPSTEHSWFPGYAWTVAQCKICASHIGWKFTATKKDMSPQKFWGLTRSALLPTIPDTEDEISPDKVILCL
T4 sequence (P48729 whole entry): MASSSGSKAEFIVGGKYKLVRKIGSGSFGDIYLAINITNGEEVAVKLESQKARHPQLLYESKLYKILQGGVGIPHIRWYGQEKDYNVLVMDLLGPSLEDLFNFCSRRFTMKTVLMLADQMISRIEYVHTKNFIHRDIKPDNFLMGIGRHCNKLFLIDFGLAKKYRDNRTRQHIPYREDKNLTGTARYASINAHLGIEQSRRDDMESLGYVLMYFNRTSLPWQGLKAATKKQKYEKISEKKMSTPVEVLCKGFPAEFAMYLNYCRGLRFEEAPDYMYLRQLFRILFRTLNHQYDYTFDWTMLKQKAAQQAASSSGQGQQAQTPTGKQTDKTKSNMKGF
T4 sequence (Q96SW2 whole entry): as the sequence (Q96SW2 whole entry) above
T4 sequence (Q16531 whole entry partner): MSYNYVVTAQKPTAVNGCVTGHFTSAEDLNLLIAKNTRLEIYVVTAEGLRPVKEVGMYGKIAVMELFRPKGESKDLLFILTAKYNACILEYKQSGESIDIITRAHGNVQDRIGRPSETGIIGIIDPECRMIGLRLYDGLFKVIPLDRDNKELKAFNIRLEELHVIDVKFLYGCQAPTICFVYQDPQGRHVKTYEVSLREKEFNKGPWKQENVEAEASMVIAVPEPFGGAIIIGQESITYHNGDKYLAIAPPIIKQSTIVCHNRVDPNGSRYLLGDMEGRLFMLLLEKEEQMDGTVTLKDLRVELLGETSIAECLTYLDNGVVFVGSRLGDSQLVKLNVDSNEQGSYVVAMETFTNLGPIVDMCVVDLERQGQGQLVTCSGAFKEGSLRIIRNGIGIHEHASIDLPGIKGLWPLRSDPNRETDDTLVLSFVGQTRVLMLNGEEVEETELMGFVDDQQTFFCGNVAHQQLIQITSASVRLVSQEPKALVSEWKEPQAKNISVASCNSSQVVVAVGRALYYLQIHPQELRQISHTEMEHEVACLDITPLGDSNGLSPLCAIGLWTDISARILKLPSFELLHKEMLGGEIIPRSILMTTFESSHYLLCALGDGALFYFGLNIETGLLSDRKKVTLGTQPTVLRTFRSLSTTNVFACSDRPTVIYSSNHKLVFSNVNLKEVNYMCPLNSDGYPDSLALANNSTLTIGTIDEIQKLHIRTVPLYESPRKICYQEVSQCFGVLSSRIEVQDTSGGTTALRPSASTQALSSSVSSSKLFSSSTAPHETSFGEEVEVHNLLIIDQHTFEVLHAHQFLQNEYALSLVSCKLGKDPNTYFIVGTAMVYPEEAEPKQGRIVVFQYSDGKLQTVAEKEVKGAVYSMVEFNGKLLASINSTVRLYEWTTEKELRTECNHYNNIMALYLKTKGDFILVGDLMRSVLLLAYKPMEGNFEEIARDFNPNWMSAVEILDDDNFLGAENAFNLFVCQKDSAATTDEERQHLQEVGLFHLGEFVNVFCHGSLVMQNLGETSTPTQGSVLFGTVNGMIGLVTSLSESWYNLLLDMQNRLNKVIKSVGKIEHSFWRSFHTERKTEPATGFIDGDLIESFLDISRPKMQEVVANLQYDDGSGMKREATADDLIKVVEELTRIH
T5 sequence (P15170 whole entry): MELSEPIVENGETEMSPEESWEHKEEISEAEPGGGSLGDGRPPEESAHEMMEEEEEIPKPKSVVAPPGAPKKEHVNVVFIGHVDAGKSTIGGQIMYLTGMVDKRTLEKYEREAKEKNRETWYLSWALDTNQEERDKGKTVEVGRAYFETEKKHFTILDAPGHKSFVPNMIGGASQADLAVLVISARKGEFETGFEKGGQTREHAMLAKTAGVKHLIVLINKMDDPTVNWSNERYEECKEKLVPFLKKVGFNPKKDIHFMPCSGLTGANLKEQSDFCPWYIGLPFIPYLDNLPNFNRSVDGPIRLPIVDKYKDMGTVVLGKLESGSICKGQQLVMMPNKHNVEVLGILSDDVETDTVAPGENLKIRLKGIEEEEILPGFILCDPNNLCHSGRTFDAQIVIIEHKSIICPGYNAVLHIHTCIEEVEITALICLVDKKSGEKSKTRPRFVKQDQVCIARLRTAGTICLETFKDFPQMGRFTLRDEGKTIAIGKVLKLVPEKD
T5 sequence (Q96SW2 whole entry): as the sequence (Q96SW2 whole entry) above
T5 sequence (Q16531 whole entry partner): as the sequence (Q16531 whole entry partner) above
T6 sequence (P30291 whole entry): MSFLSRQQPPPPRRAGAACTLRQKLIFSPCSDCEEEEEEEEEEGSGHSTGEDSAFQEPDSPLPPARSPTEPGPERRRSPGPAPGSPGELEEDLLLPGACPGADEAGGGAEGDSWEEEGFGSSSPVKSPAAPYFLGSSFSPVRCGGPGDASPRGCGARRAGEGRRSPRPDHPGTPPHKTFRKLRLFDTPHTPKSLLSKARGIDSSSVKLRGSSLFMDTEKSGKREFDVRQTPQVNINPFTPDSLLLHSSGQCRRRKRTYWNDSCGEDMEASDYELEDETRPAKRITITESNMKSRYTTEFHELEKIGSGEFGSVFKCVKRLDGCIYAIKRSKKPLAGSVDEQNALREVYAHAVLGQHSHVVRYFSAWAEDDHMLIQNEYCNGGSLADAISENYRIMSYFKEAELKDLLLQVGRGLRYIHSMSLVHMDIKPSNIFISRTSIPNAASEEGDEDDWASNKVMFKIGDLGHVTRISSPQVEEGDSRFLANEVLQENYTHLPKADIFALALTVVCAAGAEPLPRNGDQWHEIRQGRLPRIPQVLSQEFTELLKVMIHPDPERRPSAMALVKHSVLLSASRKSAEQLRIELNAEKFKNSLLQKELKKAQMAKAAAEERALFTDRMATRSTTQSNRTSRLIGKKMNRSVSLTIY
T6 sequence (Q96SW2 whole entry): as the sequence (Q96SW2 whole entry) above
T6 sequence (Q16531 whole entry partner): as the sequence (Q16531 whole entry partner) above
T7 sequence (Q9UKS7 whole entry): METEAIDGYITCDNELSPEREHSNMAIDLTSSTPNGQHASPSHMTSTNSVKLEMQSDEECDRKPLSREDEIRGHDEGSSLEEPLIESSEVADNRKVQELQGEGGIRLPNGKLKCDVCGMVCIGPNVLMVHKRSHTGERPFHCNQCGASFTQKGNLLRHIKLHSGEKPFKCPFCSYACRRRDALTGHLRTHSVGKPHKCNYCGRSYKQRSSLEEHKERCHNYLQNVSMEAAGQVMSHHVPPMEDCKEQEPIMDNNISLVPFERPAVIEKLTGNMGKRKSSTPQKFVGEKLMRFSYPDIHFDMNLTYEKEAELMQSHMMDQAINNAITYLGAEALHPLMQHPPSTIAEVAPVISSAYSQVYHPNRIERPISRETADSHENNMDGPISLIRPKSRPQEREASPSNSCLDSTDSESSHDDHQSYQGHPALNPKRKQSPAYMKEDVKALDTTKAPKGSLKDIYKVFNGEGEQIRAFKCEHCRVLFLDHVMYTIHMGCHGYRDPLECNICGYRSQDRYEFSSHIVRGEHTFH
T7 sequence (Q96SW2 whole entry): as the sequence (Q96SW2 whole entry) above
T7 sequence (Q16531 whole entry partner): as the sequence (Q16531 whole entry partner) above
T2 sequence (Q13422 whole entry): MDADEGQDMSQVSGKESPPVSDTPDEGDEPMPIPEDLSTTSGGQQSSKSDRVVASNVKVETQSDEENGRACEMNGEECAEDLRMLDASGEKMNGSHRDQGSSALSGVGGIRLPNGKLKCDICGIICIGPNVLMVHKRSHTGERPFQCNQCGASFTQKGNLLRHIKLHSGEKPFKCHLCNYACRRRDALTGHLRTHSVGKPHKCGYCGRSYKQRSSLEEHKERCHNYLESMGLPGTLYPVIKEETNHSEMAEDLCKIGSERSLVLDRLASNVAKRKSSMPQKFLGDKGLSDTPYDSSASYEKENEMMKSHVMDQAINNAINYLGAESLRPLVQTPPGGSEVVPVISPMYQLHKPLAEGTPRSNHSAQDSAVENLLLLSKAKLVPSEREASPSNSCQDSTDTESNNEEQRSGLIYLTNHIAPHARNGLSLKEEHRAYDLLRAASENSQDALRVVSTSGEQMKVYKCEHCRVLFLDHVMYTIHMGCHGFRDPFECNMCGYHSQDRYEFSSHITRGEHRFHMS
T2 sequence (Q96SW2 whole entry): as the sequence (Q96SW2 whole entry) above
T2 sequence (Q16531 whole entry partner): as the sequence (Q16531 whole entry partner) above

Structure (SMILES)	IC50 [1] [nM]	substrate protein remaining % (IKZF1)	substrate protein remaining % (IKZF3)	substrate protein remaining % (CK1α)	substrate protein remaining % (GSPT1)	substrate protein remaining % (Wee1)	substrate protein remaining % (IKZF2)
O=C1CCC(N2Cc3cc(SC4CC5CN(C(c6ccccc6)c6ccccc6)CC5C4)ccc3C2=O)C(=O)N1 (stereo not shown) [GT-06922, 3-(5-((2-benzhydryloctahydro-cyclopenta[c]pyrrol-5-yl)thio)-1-oxoisoindolin-2-yl)piperidine-2,6-dione]	< 500	A (0%≤ substrate protein remaining % ≤80%)	A (0%≤ substrate protein remaining % ≤80%)	A (0%≤ substrate protein remaining % ≤80%)	A (0%≤ substrate protein remaining % ≤80%)	A (0%≤ substrate protein remaining % ≤80%)	
CC1(C)CCC(CN2CC(Oc3cccc4c3CN(C3CCC(=O)NC3=O)C4=O)C2)=C(c2ccc(Cl)cc2)C1 (stereo not shown) [GT-06952, 3-(4-((1-((4′-chloro-5,5-dimethyl-3,4,5,6-tetrahydro-[1,1′-biphenyl]-2-yl)methyl)azetidin-3-yl)oxy)-1-oxoisoindolin-2-yl)piperidine-2,6-dione]	500 to 1000	A (0%≤ substrate protein remaining % ≤80%)	A (0%≤ substrate protein remaining % ≤80%)	A (0%≤ substrate protein remaining % ≤80%)	A (0%≤ substrate protein remaining % ≤80%)		
O=C1CCC(N2Cc3cc(SC4CN(CC5=C(c6ccc(Cl)cc6)CCC(F)(F)C5)C4)ccc3C2=O)C(=O)N1 (stereo not shown) [GT-06516, 3-(5-((1-((4′-chloro-4,4-difluoro-3,4,5,6-tetrahydro-[1,1′-biphenyl]-2-yl)methyl)azetidin-3-yl)thio)-1-oxoisoindolin-2-yl)piperidine-2,6-dione]	1000 to 1900		A (0%≤ substrate protein remaining % ≤80%)	A (0%≤ substrate protein remaining % ≤80%)	A (0%≤ substrate protein remaining % ≤80%)	A (0%≤ substrate protein remaining % ≤80%)	A (0%≤ substrate protein remaining % ≤80%)
O=C1CCC(N2Cc3cc(OC4CN(CC5=C(c6ccc(Cl)cc6)CCOC5)C4)ccc3C2=O)C(=O)N1 (stereo not shown) [GT-06354, 3-(5-((1-((4-(4-chlorophenyl)-5,6-dihydro-2H-pyran-3-yl)methyl)azetidin-3-yl)oxy)-1-oxoisoindolin-2-yl)piperidine-2,6-dione]	< 500	A (0%≤ substrate protein remaining % ≤80%)	A (0%≤ substrate protein remaining % ≤80%)	A (0%≤ substrate protein remaining % ≤80%)	A (0%≤ substrate protein remaining % ≤80%)	A (0%≤ substrate protein remaining % ≤80%)	
O=C1CCC(N2Cc3cc(OC4CN(C(c5ccccn5)c5ccccn5)C4)ccc3C2=O)C(=O)N1 (stereo not shown) [GT-06814, 3-(5-((1-(di(pyridin-2-yl)methyl)azetidin-3-yl)oxy)-1-oxoisoindolin-2-yl)piperidine-2,6-dione]	< 500		A (0%≤ substrate protein remaining % ≤80%)	A (0%≤ substrate protein remaining % ≤80%)	A (0%≤ substrate protein remaining % ≤80%)	A (0%≤ substrate protein remaining % ≤80%)	A (0%≤ substrate protein remaining % ≤80%)
CC1(C)CCC(CN2CC(Sc3cccc4c3CN(C3CCC(=O)NC3=O)C4=O)C2)=C(c2ccc(Cl)cc2)C1 (stereo not shown) [GT-06515, 3-(4-((1-((4′-chloro-5,5-dimethyl-3,4,5,6-tetrahydro-[1,1′-biphenyl]-2-yl)methyl)azetidin-3-yl)thio)-1-oxoisoindolin-2-yl)piperidine-2,6-dione]	500 to 1000	A (0%≤ substrate protein remaining % ≤80%)	A (0%≤ substrate protein remaining % ≤80%)	A (0%≤ substrate protein remaining % ≤80%)	A (0%≤ substrate protein remaining % ≤80%)	A (0%≤ substrate protein remaining % ≤80%)	
O=C1CCC(N2Cc3cc(OC4CCN(Cc5ccccc5-c5ccc(Cl)cc5)C4)ccc3C2=O)C(=O)N1 (stereo not shown) [GT-06817, 3-(5-((1-((4′-chloro-[1,1′-biphenyl]-2-yl)methyl)pyrrolidin-3-yl)oxy)-1-oxoisoindolin-2-yl)piperidine-2,6-dione]	500 to 1000		A (0%≤ substrate protein remaining % ≤80%)	A (0%≤ substrate protein remaining % ≤80%)	A (0%≤ substrate protein remaining % ≤80%)	A (0%≤ substrate protein remaining % ≤80%)	A (0%≤ substrate protein remaining % ≤80%)
O=C1CCC(N2Cc3cc(OC4CCN(C(c5ccccc5)c5ccccc5)C4)ccc3C2=O)C(=O)N1 (stereo not shown) [GT-06819, 3-(5-((1-benzhydrylpyrrolidin-3-yl)oxy)-1-oxoisoindolin-2-yl)piperidine-2,6-dione]	< 500		A (0%≤ substrate protein remaining % ≤80%)	A (0%≤ substrate protein remaining % ≤80%)	A (0%≤ substrate protein remaining % ≤80%)	A (0%≤ substrate protein remaining % ≤80%)	A (0%≤ substrate protein remaining % ≤80%)
CC1(C)CCC(CN2CC(Oc3ccc4c(c3)CN(C3CCC(=O)NC3=O)C4=O)C2)=C(c2ccc(Cl)cc2)C1 (stereo not shown) [GT-03369, 3-(5-((1-((4′-chloro-5,5-dimethyl-3,4,5,6-tetrahydro-[1,1′-biphenyl]-2-yl)methyl)azetidin-3-yl)oxy)-1-oxoisoindolin-2-yl)piperidine-2,6-dione]	500 to 1000	A (0%≤ substrate protein remaining % ≤80%)	A (0%≤ substrate protein remaining % ≤80%)		A (0%≤ substrate protein remaining % ≤80%)	A (0%≤ substrate protein remaining % ≤80%)	
O=C1CCC(N2Cc3cc(OC4CN(Cc5cnc(-c6ccccc6)cn5)C4)ccc3C2=O)C(=O)N1 (stereo not shown) [GT-06353, 3-(1-oxo-5-((1-((5-phenylpyrazin-2-yl)methyl)azetidin-3-yl)oxy)isoindolin-2-yl)piperidine-2,6-dione]	500 to 1000	A (0%≤ substrate protein remaining % ≤80%)	A (0%≤ substrate protein remaining % ≤80%)	A (0%≤ substrate protein remaining % ≤80%)	A (0%≤ substrate protein remaining % ≤80%)	A (0%≤ substrate protein remaining % ≤80%)	
O=C1CCC(N2Cc3cc(OC4CCN(C(c5ccccc5)c5ccccc5)CC4)ccc3C2=O)C(=O)N1 (stereo not shown) [GT-06195, 3-(5-((1-benzhydrylpiperidin-4-yl)oxy)-1-oxoisoindolin-2-yl)piperidine-2,6-dione]	< 500	A (0%≤ substrate protein remaining % ≤80%)	A (0%≤ substrate protein remaining % ≤80%)	A (0%≤ substrate protein remaining % ≤80%)	A (0%≤ substrate protein remaining % ≤80%)	A (0%≤ substrate protein remaining % ≤80%)	
